Experimental data reported in patent US20230241257A1, “BIOTIN-MODIFIED DIMER AND USE THEREOF” (THE UNIVERSITY OF TOKYO, priority 2020, published 2023).

Experiments:
[1] = tested on: human stomach cancer cells (MKN-45); experiment: Experiment 4: pharmacokinetics of ^211At-psyche-B in the absence of Cupid-scFv antibody in MKN-45 cancer-bearing mouse models; type: in vivo, mice (BALB/cSlc nu/nu); conditions: no Cupid-scFv antibody
Method: The present experiment used human stomach cancer cells (MKN-45) expressing carcinoembryonic antigen (CEA). 9-week-old male immunodeficient mice (BALB/cSlc nu/nu) were used. MKN-45 cells (1×10^7/0.1 ml) were transplanted into the mice's subcutis on the right shoulder dorsal side to produce cancer-bearing mouse models. The mice were divided into four groups when the tumor volume became a predetermined size (on Day 14 after the transplantation), and ^211At-psyche-B (about 0.25 MBq/[…]) was administered via the caudal vein of each mouse. One minute, 1 hour, 6 hours, and 24 hours after administration of the ^211At-psyche-B, the mice were euthanized by collecting whole blood from the heart of each mouse under isoflurane anesthesia, and tumor tissues and normal tissues/organs were then excised. Normal tissues/organs: skin (lower right limb), muscle (right gastrocnemius), heart, lung, spleen, pancreas, white fat (upper portion of right side testis), testis (both sides), stomach, stomach contents, small intestine (including contents), large intestine (including contents), liver, brown fat (interscapular), submandibular gland, thyroid gland (together with trachea), bone (right femur), brain, eyeball, bladder, and urine; the remaining residues were divided into three equal parts, and the three equal parts were defined to be residue-1, residue-2, and residue-3. After that, the weights of blood, plasma, urine, tumor, and normal tissues/organs were measured, and the radioactivity thereof was then measured using a γ counter. The amounts of the ^211At-psyche-B (radioactivity) accumulated in the blood, plasma, urine, tumor, and normal tissues/organs were calculated. That is to say, the rates (% ID/g) of the ^211At-psyche-B accumulated per unit weight (g) of the blood, plasma, urine, tumor, and normal tissues/organs, in the administered ^211At-psyche-B, were shown. Regarding accumulation of the ^211At-psyche-B in the thyroid gland, since the weight of the thyroid gland could not be precisely measured, it was shown that the rate (% ID) of the ^211At-psyche-B accumulated in the thyroid gland in the administered ^211At-psyche-B.

[2] = tested on: human stomach cancer cells (MKN-45); experiment: Experiment 10: therapeutic effects and toxicity of Cupid-scFv antibody (24 h before)+^211At-psyche-B in MKN-45 cancer-bearing mouse models; type: in vivo, mice (BALB/cSlc nu/nu)
Method: The present experiment used human stomach cancer cells (MKN-45) expressing carcinoembryonic antigen (CEA). 9-week-old male immunodeficient mice (BALB/cSlc nu/nu) were used. MKN-45 cells (5×10^6/0.1 ml) were transplanted into the mice's subcutis on the right shoulder dorsal side to produce cancer-bearing mouse models. At the time point in which the tumor volume became a predetermined size (on Day 8 after the transplantation), the mice were divided into six groups, which were for use in the evaluation of the therapeutic effects, and a biodistribution group (6 hours) of cancer-bearing mouse models having this tumor size. The Cupid-scFv antibody was administered 100 μmol/0.1 ml via the caudal vein of each mouse. Twenty-four hours after administration of the Cupid-scFv antibody, ^211At-psyche-B was administered via the caudal vein of each mouse in an amount of 3.70 MBq, 1.85 MBq, 1.11 MBq, or 0.37 MBq.
In the present experiment, a 5.55 MBq administration group was not established. To a control group, a solvent for the ^211At-psyche-B was administered (solvent group). A group to which only cupid was administered was defined as a Cupid group. The mice's general states were observed and recorded immediately after administration of the ^211At-psyche-B and at 3 hours after the administration. Moreover, until Day 14, after administration of the ^211At-psyche-B, observation of the general states and the measurement of the body weight was carried out every day. After Day 14 of the administration of the […], observation of the general states and the measurement of the body weight was carried out every other day. The tumor size was measured every other day after the treatment with the ^211At-psyche-B. On Day 36, after the treatment with the ^211At-psyche-B, observation of the general states, the measurement of the body weight, and the measurement of the tumor size were carried out, and the mice were then euthanized by collecting whole blood from the heart of each mouse under isoflurane anesthesia. Tumor tissues and major tissues/organs were excised from the mice, weighed, and immobilized with formalin.

With `N=C1N[C@H]2[C@H](CS[C@H]2CCCCC(=O)NCCCCCC(=O)Nc2cc(NC(=O)CCCCCNC(=O)CCCC[C@@H]3SC[C@@H]4NC(=N)N[C@@H]43)cc(C(=O)NCCOCCOCCNC(=O)c3cccc([211At])c3)c2)N1` [^211At-psyche-B] the “Accumulation in the blood” value ([1]; after 1 minute) was 10.4±1.1 % ID/g, the “Accumulation in the kidney” value ([1]; after 1 minute) was 61.4±6.5 % ID/g and the “Accumulation in the liver” value ([1]; after 1 minute) was 49.1±6.2 % ID/g. For the same molecule, the “Accumulation in the tumor” value ([1]; after 1 minute) was 0.3±0.05 % ID/g, the “Accumulation in the blood” value ([1]; after 1 hour) was 3.8±0.3 % ID/g and the “Accumulation in the kidney” value ([1]; after 1 hour) was 57.2±3.1 % ID/g. The “Accumulation in the liver” value ([1]; after 1 hour) was 35.3±3.3 % ID/g, the “Accumulation in the tumor” value ([1]; after 1 hour) was 1.0±0.1 % ID/g and the “Accumulation in the blood” value ([1]; after 6 hours) was 0.4±0.1 % ID/g. The “Accumulation in the kidney” value ([1]; after 6 hours) was 17.7±1.9 % ID/g, the “Accumulation in the liver” value ([1]; after 6 hours) was 16.8±0.7 % ID/g and the “Accumulation in the thyroid gland” value ([1]; after 6 hours) was 0.16±0.06 % ID. The “Accumulation in the tumor” value ([1]; after 6 hours) was 1.0±0.1 % ID/g, the “Accumulation in the blood” value ([1]; after 24 hours) was 0.2±0.04 % ID/g and the “Accumulation in the kidney” value ([1]; after 24 hours) was 5.1±0.9%. For the same molecule, the “Accumulation in the liver” value ([1]; after 24 hours) was 9.0±1.4%, the “Accumulation in the tumor” value ([1]; after 24 hours) was 0.3±0.02% and the body weight reduction ([2]; 0.37 MBq, before Day 10) was “body weight reduction was lower than that in the 1.11 MBq”. The body weight reduction ([2]; 0.37 MBq, on and after Day 10) was “the body weight reduction was the same as in the 1.11 MBq”, the “tumor growth compared with the control group” value ([2]; 0.37 MBq, until Day 10) was “tumor growth was suppressed” and the body weight recovery ([2]; 1.11 MBq, after Day 5) was “the body weight was not recovered to the same level as the control groups”. The body weight ([2]; 1.11 MBq, until Day 5) was “the body weight was slightly reduced”, the “tumor growth compared with the control group” value ([2]; 1.11 MBq, until Day 10) was “tumor growth was suppressed” and the “tumor growth compared with the control group” value ([2]; 1.85, 1.11 and 0.37 MBq, after Day 10) was “the tumor growth was suppressed in an amount-dependent manner”. For the same molecule, the “general states and body weight” value ([2]; 1.85 MBq, Day 5) was “general states and body weight reduction became significantly severe”, the mortality ([2]; 1.85 MBq, Day 10) was “one mouse died” and the “recovery of general states” value ([2]; 1.85 MBq, Day 26) was “the mice were completely recovered”. For the same molecule, the skin findings ([2]; 1.85 MBq, on and after Day 6 until Day 12) was “red spots were dispersed on the skin”, the “tumor growth compared with the control group” value ([2]; 1.85 MBq, until Day 10) was “tumor growth was suppressed” and the “general states and body weight” value ([2]; 3.70 MBq, Day 5, urgent euthanasia) was “general states and body weight reduction became severe”.
